The compounds below were run against recombinant Mcl-1 (residues 172-327) (Homo sapiens (Human), UniProt Q07820) (assay: Bak peptide fluorescence polarization anisotropy competition assay, Mcl-1). Conditions: not given.
recombinant Mcl-1 (residues 172-327), sequence (Q07820 172-327): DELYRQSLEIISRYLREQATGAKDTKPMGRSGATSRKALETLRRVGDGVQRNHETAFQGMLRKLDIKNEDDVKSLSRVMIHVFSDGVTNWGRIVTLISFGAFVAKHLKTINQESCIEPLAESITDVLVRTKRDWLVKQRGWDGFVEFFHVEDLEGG
Type: binding
Work on Cc1cccc(S(=O)(=O)NC(=O)c2c(CCCOc3cc(C)c(Cl)c(C)c3)c3ccc(Cl)cc3n2Cc2cccnc2)c1 [Example 273, 6-chloro-3-(3-(4-chloro-3,5-dimethylphenoxy)propyl)-1-(pyridin-3-ylmethyl)-N-(m-tolylsulfonyl)-1H-indole-2-carboxamide] yielded a Ki of 101 to 299 nM. In the case of Cc1cc(OCCCc2c(C(=O)NS(=O)(=O)CCNC(=O)c3cn(Cc4ccccc4)c4ccccc34)[nH]c3ccccc23)cc(C)c1Cl [Example 201, N-((2-(1-benzyl-1H-indole-3-carboxamido)ethyl)sulfonyl)-3-(3-(4-chloro-3,5-dimethylphenoxy)propyl)-1H-indole-2-carboxamide], the Ki is reported as 101 to 299 nM.

Same assay, conditions: Table 2, Ki range; FITC-Bak peptide 10 nM, Mcl-1 14 nM; read-out: Ki for inhibition of Mcl-1
In the case of Cc1cc2nnnn2cc1-c1cccc2c(CCCOc3cc(C)c(Cl)c(C)c3)c(C(=O)NS(=O)(=O)c3ccccc3)[nH]c12 [Example 300, 3-(3-(4-chloro-3,5-dimethylphenoxy)propyl)-7-(7-methyltetrazolo[1,5-a]pyridin-6-yl)-N-(phenylsulfonyl)-1H-indole-2-carboxamide], the Ki is reported as ≤ 100 nM. CCCn1nccc1-c1cccc2c(CCCOc3cc(C)c(Cl)c(C)c3)c(C(=O)NS(=O)(=O)c3ccccc3)[nH]c12 [Example 303, 3-(3-(4-chloro-3,5-dimethylphenoxy)propyl)-N-(phenylsulfonyl)-7-(1-propyl-1H-pyrazol-5-yl)-1H-indole-2-carboxamide] was tested, and the Ki was ≤ 100 nM. For Cc1cc(OCCCc2c(C(=O)NS(=O)(=O)c3ccccc3)[nH]c3c(-c4cccn4C)cccc23)cc(C)c1Cl [Example 101, 3-(3-(4-chloro-3,5-dimethylphenoxy)propyl)-7-(1-methyl-1H-pyrrol-2-yl)-N-(phenylsulfonyl)-1H-indole-2-carboxamide], the Ki was ≤ 100 nM. Cc1cc2nccn2cc1-c1cccc2c(CCCOc3cc(C)c(Cl)c(C)c3)c(C(=O)NS(=O)(=O)c3ccccc3)[nH]c12 [Example 299, 3-(3-(4-chloro-3,5-dimethylphenoxy)propyl)-7-(7-methylimidazo[1,2-a]pyridin-6-yl)-N-(phenylsulfonyl)-1H-indole-2-carboxamide] was tested, and the Ki was ≤ 100 nM. For Cc1cc(OCCCc2c(C(=O)NS(=O)(=O)c3ccccc3)[nH]c3c(-c4cnn(C)c4)c(Cl)ccc23)cc(C)c1Cl [Example 121, 6-chloro-3-(3-(4-chloro-3,5-dimethylphenoxy)propyl)-7-(1-methyl-1H-pyrazol-4-yl)-N-(phenylsulfonyl)-1H-indole-2-carboxamide], the Ki was ≤ 100 nM.

Same assay, conditions: read-out: Ki for inhibition of Mcl-1
Cc1ccccc1Cn1cccc1C(=O)NCCS(=O)(=O)NC(=O)c1[nH]c2cc(Cl)ccc2c1CCCOc1cc(C)c(Cl)c(C)c1 [Example 244, 6-chloro-3-(3-(4-chloro-3,5-dimethylphenoxy)propyl)-N-((2-(1-(2-methylbenzyl)-1H-pyrrole-2-carboxamido)ethyl)sulfonyl)-1H-indole-2-carboxamide] gave a Ki of 301 to 500 nM. COc1cccc(OCCCc2c(C(=O)NS(C)(=O)=O)[nH]c3cc(Cl)ccc23)c1 [Example 108, 6-chloro-3-(3-(3-methoxyphenoxy)propyl)-N-(methylsulfonyl)-1H-indole-2-carboxamide] was tested, and the Ki was 1000 to 9990 nM. In the case of CS(=O)(=O)NC(=O)c1[nH]c2cc(Cl)ccc2c1CCCOc1cccc2c1CCC2 [Example 106, 6-chloro-3-(3-((2,3-dihydro-1H-inden-4-yl)oxy)propyl)-N-(methylsulfonyl)-1H-indole-2-carboxamide], the Ki is reported as 1000 to 9990 nM. Cc1cc(OCCCc2c(C(=O)NS(=O)(=O)c3ccccc3)[nH]c3c(-c4cccs4)cccc23)cc(C)c1Cl [Example 95, 3-(3-(4-chloro-3,5-dimethylphenoxy)propyl)-N-(phenylsulfonyl)-7-(thiophen-2-yl)-1H-indole-2-carboxamide] gave a Ki of 101 to 299 nM. Cc1cc(OCCCc2c(C(=O)NS(=O)(=O)c3ccccc3)[nH]c3c(-c4ccncc4)cccc23)cc(C)c1Cl [Example 94, 3-(3-(4-chloro-3,5-dimethylphenoxy)propyl)-N-(phenylsulfonyl)-7-(pyridin-4-yl)-1H-indole-2-carboxamide] showed a Ki of 101 to 299 nM. Cc1cc(OCCCc2c(C(=O)NS(=O)(=O)C3CCN(C(=O)c4cc(-c5ccccc5O)n[nH]4)CC3)[nH]c3cc(Cl)ccc23)cc(C)c1Cl [Example 214] was tested, and the Ki was 301 to 500 nM. With Cc1ccccc1S(=O)(=O)NC(=O)c1[nH]c2ccccc2c1CCCOc1cc(C)c(Cl)c(C)c1 [Example 137, 3-(3-(4-chloro-3,5-dimethylphenoxy)propyl)-N-(o-tolylsulfonyl)-1H-indole-2-carboxamide] the Ki was 101 to 299 nM. Cc1cc(OCCCc2c(C(=O)NS(=O)(=O)c3ccccc3)[nH]c3c(-c4cnn(C)c4)ccc(Cl)c23)cc(C)c1Cl [Example 122, 4-chloro-3-(3-(4-chloro-3,5-dimethylphenoxy)propyl)-7-(1-methyl-1H-pyrazol-4-yl)-N-(phenylsulfonyl)-1H-indole-2-carboxamide] showed a Ki of 301 to 500 nM. CS(=O)(=O)NC(=O)c1[nH]c2cc(Cl)ccc2c1CCCOc1cccc2ccccc12 [Example 52, 6-chloro-N-(methylsulfonyl)-3-(3-(naphthalen-1-yloxy)propyl)-1H-indole-2-carboxamide] showed a Ki of 101 to 299 nM. In the case of CS(=O)(=O)NC(=O)c1[nH]c2ccccc2c1CCCOc1cccc2ccccc12 [Example 19, N-(methylsulfonyl)-3-(3-(naphthalen-1-yloxy)propyl)-1H-indole-2-carboxamide], the Ki is reported as 1000 to 9990 nM. Compound CS(=O)(=O)NC(=O)c1[nH]c2cc(Cl)ccc2c1CCCOc1cccc2c1CCCC2 [Example 75, 6-chloro-N-(methylsulfonyl)-3-(3-((5,6,7,8-tetrahydronaphthalen-1-yl)oxy)propyl)-1H-indole-2-carboxamide] has a Ki of 501 to 999 nM. Cc1cc(OCCCc2c(C(=O)NS(=O)(=O)CCNC(=O)c3ccc4cc[nH]c4c3)[nH]c3ccccc23)cc(C)c1Cl [Example 176, N-((2-(1H-indole-6-carboxamido)ethyl)sulfonyl)-3-(3-(4-chloro-3,5-dimethylphenoxy)propyl)-1H-indole-2-carboxamide] gave a Ki of 101 to 299 nM. CS(=O)(=O)NC(=O)c1[nH]c2ccc(Cl)cc2c1CCCOc1cccc2ccccc12 [Example 111, 5-chloro-N-(methylsulfonyl)-3-(3-(naphthalen-1-yloxy)propyl)-1H-indole-2-carboxamide] gave a Ki of 1000 to 9990 nM. Cc1cc(OCCCc2c(C(=O)NS(C)(=O)=O)[nH]c3ccccc23)ccc1Cl [Example 20, 3-(3-(4-chloro-3-methylphenoxy)propyl)-N-(methylsulfonyl)-1H-indole-2-carboxamide] showed a Ki of 301 to 500 nM. Cc1cc(OCCCc2c(C(=O)NS(=O)(=O)CCNC(=O)C3CCCCC3)[nH]c3ccccc23)cc(C)c1Cl [Example 150, 3-(3-(4-chloro-3,5-dimethylphenoxy)propyl)-N-((2-(cyclohexanecarboxamido)ethyl)sulfonyl)-1H-indole-2-carboxamide] gave a Ki of 101 to 299 nM. In the case of Cc1cc(OCCCc2c(C(=O)NS(=O)(=O)CCc3ccccc3)[nH]c3ccccc23)cc(C)c1Cl [Example 140, 3-(3-(4-chloro-3,5-dimethylphenoxy)propyl)-N-(phenethylsulfonyl)-1H-indole-2-carboxamide], the Ki is reported as 501 to 999 nM. With Cc1cc(C(=O)NCCS(=O)(=O)NC(=O)c2[nH]c3ccccc3c2CCCOc2cc(C)c(Cl)c(C)c2)c(C)o1 [Example 159, 3-(3-(4-chloro-3,5-dimethylphenoxy)propyl)-N-((2-(2,5-dimethylfuran-3-carboxamido)ethyl)sulfonyl)-1H-indole-2-carboxamide] the Ki was 101 to 299 nM. Cc1cc(OCCCc2c(C(=O)NS(=O)(=O)c3ccc(-c4ccccc4)cc3)[nH]c3cc(Cl)ccc23)cc(C)c1Cl [Example 219, N-([1,1′-biphenyl]-4-ylsulfonyl)-6-chloro-3-(3-(4-chloro-3,5-dimethylphenoxy)propyl)-1H-indole-2-carboxamide] was tested, and the Ki was 301 to 500 nM. In the case of Cc1cc(OCCCc2c(C(=O)NS(C)(=O)=O)sc3cccc(Cl)c23)cc(C)c1Cl [Example 71, 4-chloro-3-(3-(4-chloro-3,5-dimethylphenoxy)propyl)-N-(methylsulfonyl)benzo[b]thiophene-2-carboxamide], the Ki is reported as 1000 to 9990 nM. With Cc1cc(OCCCc2c(C(=O)NS(=O)(=O)C3CC3)sc3ccccc23)cc(C)c1Cl [Example 69, 3-(3-(4-chloro-3,5-dimethylphenoxy)propyl)-N-(cyclopropylsulfonyl)benzo[b]thiophene-2-carboxamide] the Ki was 1000 to 9990 nM. For COc1ccc(OCCCc2c(C(=O)NS(C)(=O)=O)[nH]c3cc(Cl)ccc23)cc1 [Example 109, 6-chloro-3-(3-(4-methoxyphenoxy)propyl)-N-(methylsulfonyl)-1H-indole-2-carboxamide], the Ki was 10000 to 50000 nM. O=C(NS(=O)(=O)Cc1ccccc1)c1sc2ccccc2c1CCCOc1cccc2ccccc12 [Example 62, N-(Benzylsulfonyl)-3-(3-(naphthalen-1-yloxy)propyl)benzo[b]thiophene-2-carboxamide] was tested, and the Ki was 1000 to 9990 nM. With Cc1cc(OCCCc2c(C(=O)NS(=O)(=O)c3cccc4ccccc34)oc3ccccc23)cc(C)c1Cl [Example 28, 3-(3-(4-chloro-3,5-dimethylphenoxy)propyl)-N-(naphthalen-1-ylsulfonyl)benzofuran-2-carboxamide] the Ki was 1000 to 9990 nM. Cc1cc(OCCCc2c(C(=O)NS(=O)(=O)CCNC(=O)c3ccccn3)[nH]c3ccccc23)cc(C)c1Cl [Example 190, 3-(3-(4-chloro-3,5-dimethylphenoxy)propyl)-N-((2-(picolinamido)ethyl)sulfonyl)-1H-indole-2-carboxamide] gave a Ki of 101 to 299 nM. Cc1cc(OCCCc2c(C(=O)NS(=O)(=O)CCNC(=O)c3cc(C)n(C)c3C)[nH]c3ccccc23)cc(C)c1Cl [Example 192, 3-(3-(4-chloro-3,5-dimethylphenoxy)propyl)-N-((2-(1,2,5-trimethyl-1H-pyrrole-3-carboxamido)ethyl)sulfonyl)-1H-indole-2-carboxamide] showed a Ki of 301 to 500 nM. Cc1cccc(Cn2cccc2C(=O)NCCS(=O)(=O)NC(=O)c2[nH]c3cc(Cl)ccc3c2CCCOc2cc(C)c(Cl)c(C)c2)c1 [Example 245, 6-chloro-3-(3-(4-chloro-3,5-dimethylphenoxy)propyl)-N-((2-(1-(3-methylbenzyl)-1H-pyrrole-2-carboxamido)ethyl)sulfonyl)-1H-indole-2-carboxamide] gave a Ki of 101 to 299 nM.
